Results: patent US9056133B2, “Pharmaceutical kit and method for treating cancer” (priority 2012, dated 2015)

Key:
[1] = system: SW1990 pancreatic tumoral cell line; assay: Combined effect of AV25CDC 5/3 and gemcitabine, MTT cell viability; assay type: cell-based, human; conditions: alone or 24 h after virus at MOI 0.1, MTT six days later
Protocol: FIG. 8. In vitro synergic effect of AV25CDC 5/3 and gemcitabine in pancreatic tumoral cell line SW1990. Cells were infected with AV25CDC 5/3, at a MOI of 0.1 and 24 hours later gemcitabine was added at concentrations of 0.01 uM and 0.1 uM. Six days later, cell viability was measured using MTT assay.
Pancreatic tumoral cell lines (SW1990) were plated and infected with AV25CDC 5/3, at a MOI of 0.1 and 24 hours later, gemcitabine was added in concentrations of 0.01 uM and 0.1 uM. Six days later, cell viability was measured using MTT assay. There was no decrease on viability if only AV25CDC 5/3 is used at a MOI of 0.1, as well as no decrease was found adding gemcitabine at 0.01 uM. Nevertheless, the combination of both produced a decrease in cell viability of 20%. Using a higher concentration of gemcitabine, of 0.1 uM, on its own produced a decrease in viability of 20%, but combined with AV25CDC 5/3 at a MOI of 0.1, the viability decrease of 40%, considering the control (FIG. 8).

[2] = Biochemical profile and Ca 19.9 tumoral marker of treated animals at day 40; assay type: in vivo, athymic mice N:NIH(S)-nu
Protocol: Also, to evaluate efficacy of AV25CDC 5/3, on orthotopic tumors caused by SW1990 cells, E4 expression was evaluated at day 40, where an average of […] viral particles were found in the tumor indicating an active replication. On the other hand, biochemical parameters were evaluated at day 40, determining amylase, total and direct bilirubin, alkaline phosphatase (ALP) and aspartate aminotransferase (AST).
Tumoral marker levels Ca 19.9 were also determined.

For `Nc1ccn([C@@H]2O[C@H](CO)[C@@H](O)C2(F)F)c(=O)n1` [gemcitabine], the cytotoxicity at 0.1 µM ([1]; Homo sapiens, gemcitabine 0.1 uM, vs control, read-out: decrease in cell viability) was 20%, the “decrease in cell viability” value ([1]; gemcitabine 0.01 uM) was “no decrease” and the ALP ([2]; average ± SD, day 40) was 119.3 ± 25 U/L. The Amylase ([2]; average ± SD, day 40) was 1151 ± 386 U/L, the Direct bilirubin ([2]; average ± SD, day 40) was 0.14 ± 0.02 mg/dL and the “GOT (AST)” value ([2]; average ± SD, day 40) was 280 ± 64 U/L. The “GPT (ALT)” value ([2]; average ± SD, day 40) was 47 ± 17 U/L, the “Total Bilirubin” value ([2]; average ± SD, day 40) was 0.78 ± 0.05 mg/dL and the “Ca 19.9” value ([2]; tumoral marker, individual samples, day 40 after injection of virus) was 27940 U/ml.
